ChEMBL document CHEMBL1146733, “Effect of gabapentin derivates on mechanical allodynia-like behaviour in a rat model of chronic sciatic constriction injury” (2004)

What was measured:
Rattus norvegicus [1] = assay: Antiallodynic effect investigated in chronic sciatic nerve constriction injury rats before 1 hr of 60 mg/kg i.p. administration and value reported as paw withdrawal threshold; type: functional; conditions: route intraperitoneal
Rattus norvegicus [2] = assay: Antiallodynic effect investigated in chronic sciatic nerve constriction injury rats after 1 hr of 60 mg/kg i.p. administration and value reported as paw withdrawal threshold; type: functional; conditions: route intraperitoneal

Structure (SMILES)	PWT (Rattus norvegicus [1]; 60 mg/kg) [g]	PWT (Rattus norvegicus [2]; 60 mg/kg) [g]	PWT (Rattus norvegicus [1]) [g]	PWT (Rattus norvegicus [2]) [g]
CC(C)C[C@@H](CN)CC(=O)OCCCCCOC(=O)CC1(CN)CCCCC1.Cl.Cl (stereo in doubt; 2003327)	3.33	20.67		
CC(C)C[C@H](CN)CC(=O)OCCOC(=O)C[C@H](CN)CC(C)C.Cl.Cl			2.9	7.9
CC(C)C[C@@H](CN)CC(=O)OCCCCOC(=O)CC1(CN)CCCCC1.Cl.Cl			4.17	8.56
CC(C)C[C@@H](CN)CC(=O)OCCOC(=O)CC1(CN)CCCCC1.Cl.Cl			3.33	19
COc1ccc(C(CN(C)C)C2(O)CCCCC2)cc1 (configuration not stated) [VENLAFAXINE]			2	22
CC(C)C[C@@H](CN)CC(=O)OCC(C)(C)COC(=O)CC1(CN)CCCCC1.Cl.Cl			4.4	7.2
COC(=O)C[C@@H](CN)CC(C)C.Cl			5.2	6.8
COc1ccc(C(CN(C)C)C2(OC(=O)CCC(=O)NC34CC5CC(C)(CC(C)(C5)C3)C4)CCCCC2)cc1.Cl.Cl (configuration not stated)			3.36	5.6
CC12CC3CC(C)(C1)CC(N)(C3)C2.Cl [MEMANTINE HYDROCHLORIDE]			2.8	10.4
CC(C)C[C@H](CNC(=O)CCC(=O)NC12CC3CC(C)(CC(C)(C3)C1)C2)CC(=O)O			3.32	13.2
Cl.Cl.NCC1(CC(=O)OCCOC(=O)CC2(CN)CCCCC2)CCCCC1			3.4	18.67
CC(C)C[C@@H](CN)CC(=O)OCCCCCOC(=O)CC1(CN)CCCCC1.Cl.Cl (stereo in doubt; 20030417)	2.8	13.8		
CC(C)C[C@H](CN)CC(=O)OCCCCOC(=O)C[C@H](CN)CC(C)C.Cl.Cl			4.5	8.5
NCC1(CC(=O)O)CCCCC1 [GABAPENTIN]			2.23	13.5
Cl.Cl.NCC1(CC(=O)OCCCCOC(=O)CC2(CN)CCCCC2)CCCCC1			4	5.6
CC(C)C[C@H](CNC(=O)CCC(=O)NC[C@@H](CC(=O)O)CC(C)C)CC(=O)O			4	6
COC(=O)CC1(CN)CCCCC1.Cl			6.4	22.8
CC(C)C[C@H](CN)CC(=O)OCCCOC(=O)C[C@H](CN)CC(C)C.Cl.Cl			6	10.33
CCC(COC(=O)CC1(CN)CCCCC1)OC(=O)C[C@H](CN)CC(C)C.Cl.Cl (stereo in doubt; 2003415)	4.4			
CC(C)C[C@@H](CN)CC(=O)OCCCOC(=O)CC1(CN)CCCCC1.Cl.Cl			3.6	7.8
Cl.Cl.NCC1(CC(=O)OCCCOC(=O)CC2(CN)CCCCC2)CCCCC1			4.8	19.4
CCC(COC(=O)CC1(CN)CCCCC1)OC(=O)C[C@H](CN)CC(C)C.Cl.Cl (stereo in doubt; 2003325)	4			6.8
CC(C)C[C@H](CN)CC(=O)O [PREGABALIN]			3.43	18.86
CC(C)C[C@@H](CN)CC(=O)OC(C)CCOC(=O)CC1(CN)CCCCC1.Cl.Cl (some centres not stated)			4	11.4
